Results on two compounds are retold here after patent US6929912B2 (priority 1998, dated 2005).

SMILES strings stand for the structures. “And” between values parts separate entries of the source, which are not always exact repeats. Equal entries are not always repeated. Where two headings read alike, the source gives them in different places.

Data set [1] concerns metastatic or inflammatory breast cancer. It is filed as in vivo, human.
The subject of the next data set is breast cancer. To be noted: cited from earlier work.

With `O=NN(CCCl)C(=O)NCCCl` [BCNU, 1,3-bis-(chloroethyl)-1-nitrosourea], the “Survival >3 years: Yes” value in data set [1] (human, in vivo) was 55.6% and 29.7%.

On to `O=P1(N(CCCl)CCCl)NCCCO1` (stereo not drawn) [CY, cyclophosphamide], for which, under “patients carrying the CYP3A4 promoter -392 variant vs without, p=0.0247”, the “blood concentrations of CY on day 3” value is reported as “significantly higher”. Besides, the “blood concentrations of CY on day 2” value (patients carrying the CYP3A4 promoter -392 variant vs without, p=0.0260) was “significantly higher” and the “blood concentrations of CY on day 2” value (patients carrying the CYP3A5 promoter -147 variant vs without, p=0.0281) is “significantly higher”. Moreover, the “Apparent induction of CY metabolism (Day 3 exposure/Day 1 exposure)” value (patients carrying the CYP3A4 variant SNP vs without, p=0.0260) was “higher”. Moreover, the “concentrations of CY” value (patients with CYP3A4 B allele vs homozygous for the A allele, day not given) is listed as “higher”. In addition, the “Blood concentrations of CY” value (patients with CYP3A5 B alleles vs homozygous for the A allele, day not given) is “significantly higher”. Also, the results for the “chance of survival relative to patients homozygous for the A allele” value in data set [1] (CYP3A4 B allele patients) and in data set [1] (CYP3A5 B allele patients) were “⅓” and “less than ⅓”, respectively. For the same compound, the “Survival >3 years: Yes” value in data set [1] (CYP3A4 genotype AA (wildtype)) is listed as 46.6%; in data set [1] (CYP3A4 genotype AB or BB) it was 15.4%; in data set [1] (CYP3A5 genotype AA (wildtype)), 48.2%; in data set [1] (CYP3A5 genotype AB or BB), 14.3%. In addition, the entries for the “objective responses, patients” value in the data set with breast cancer (cyclophosphamide used alone) and in the data set on breast cancer (cyclophosphamide used in combination regimens) were “about 35%” and “up to 90%”, respectively.
